Test results as given in patent EP3368040B1, “METHODS AND COMPOSITIONS FOR RECOVERY FROM STROKE” (Eip Pharma, LLC, priority 2015, dated 2017).

Assays:
animal models of stroke = conditions: administered 24-hours after stroke; Piao et al. 2003; cited from earlier work
rat model of stroke [1] = test: transient MCAO in rats: forelimb placement test; assay type: in vivo, Sprague Dawley rats; conditions: Week 4 and Week 6; 1.5 and 4.5 mg/kg PO twice a day
Protocol: (§1) Altogether 76 adult male Sprague Dawley rats, purchased from Harlan Laboratories, (Israel), and weighing 300-350 g were used for the experiment. Animals were housed at a standard temperature (20-24°C) and in a light-controlled environment (12 hours light / 12 hours dark) with ad libitum access to food and water. Animals were grouped as follows: • Group 1M: 20 tMCAO animals treated twice-a-day with vehicle from Day 3 (day 1 being day of stroke surgery) to Day 42 (via PO gavage) • Group 2M: 22 tMCAO animals treated twice-a-day with VX-745 (1.5 mg/kg) from Day 3 (day 1 being day of stroke surgery) to Day 42 (via PO gavage) • Group 3M: 21 tMCAO animals treated twice-a-day with VX-745 (4.5 mg/kg) from Day 3 (day 1 being day of stroke surgery) to Day 42 (via PO gavage)
Transient middle cerebral artery occlusion was performed according to the method described in R. Schmid-Elsaesser et al., Stroke, 29(10):2162-2170 (1998). The right Common Carotid Artery (CCA) was exposed through a midline neck incision and carefully dissected free from surrounding nerves and fascia - from its bifurcation to the base of the skull. The occipital artery branches of the ECA (External Carotid Artery) were then isolated, and these branches were dissected and coagulated. The ECA was dissected further distally and coagulated along with the terminal lingual and maxillary artery branches, which was then divided. […]

[2] = transient MCAO in rats: body weight monitoring; assay type: in vivo, Sprague Dawley rats; conditions: through the study; 1.5 and 4.5 mg/kg PO twice a day versus vehicle
Protocol: as §1
Animals were handled at a minimum for three days before the surgery. Baseline measures were taken before stroke was induced. Stroke surgery occurred on Day 1. On Day 2, 24 hours post-stroke surgery, Neuroscore testing was performed. Only animals reaching and exceeding Neuroscore criteria was included in the study. On Days 3-42, treatment with vehicle or VX-745 was administered twice a day for 40 days via PO (oral) gavage for all groups. Behavioral tests for all groups were conducted on weeks 4 and 6. Animals were sacrificed on Day 44 and brains were harvested. […]

rat model of stroke [3] = test: transient MCAO in rats: neurological scoring (Neuroscore, mNSS); assay type: in vivo, Sprague Dawley rats
Protocol: as §1
Transient middle cerebral artery occlusion was performed according to the method described in R. Schmid-Elsaesser et al., Stroke, 29(10):2162-2170 (1998). The right Common Carotid Artery (CCA) was exposed through a midline neck incision and carefully dissected free from surrounding nerves and fascia - from its bifurcation to the base of the skull. The occipital artery branches of the ECA (External Carotid Artery) were then isolated, and these branches were dissected and coagulated. The ECA was dissected further distally and coagulated along with the terminal lingual and maxillary artery branches, which was then divided. The ICA (Internal Carotid Artery) was isolated and carefully separated from the adjacent vagus nerve, and the pterygopalatine artery was ligated close to its origin with a 5-0 nylon suture (SMI, Belgium). Next, a 4-0 silk suture was tied loosely around the mobilized ECA stump, and a 4 cm length of 4-0 monofilament nylon suture (the tip of the suture was blunted by using a flame, and the suture was coated with polylysine, prior to insertion) was inserted through the proximal ECA into the ICA and thence into the circle of Willis, effectively occluding the MCA. The surgical wound was closed and the animals were returned to their cages to recover from anesthesia. […]

cytokine production = conditions: inhibition of cytokine production; cited from earlier work
[4] = transient MCAO in rats: mortality and clinical signs; assay type: in vivo
Protocol: Animals were handled at a minimum for three days before the surgery. Baseline measures were taken before stroke was induced. Stroke surgery occurred on Day 1. On Day 2, 24 hours post-stroke surgery, Neuroscore testing was performed. Only animals reaching and exceeding Neuroscore criteria was included in the study. […] Behavioral tests for all groups were conducted on weeks 4 and 6. Animals were sacrificed on Day 44 and brains were harvested.

rat model of stroke [5] = test: transient MCAO in rats: body swing test; assay type: in vivo, Sprague Dawley rats; conditions: particularly in the 4.5 mg/kg dose group
Protocol: as §1
(§2) Transient middle cerebral artery occlusion was performed according to the method described in R. Schmid-Elsaesser et al., Stroke, 29(10):2162-2170 (1998). […]
Body Swing Test. […] A swing was recorded whenever the rat moved its head out of the vertical axis to either side. Before attempting another swing, the rat had must return to the vertical position for the next swing to be counted. Twenty (20) total swings were counted. […] Body swing scores were expressed as a percentage of rightward over total swings. […]

cytokine signaling = conditions: relative to IC50 for cytokine production; Alam 2015; cited from earlier work
[6] = brain versus blood drug concentration in pre-clinical studies; assay type: in vivo
[7] = treatment of rheumatoid arthritis; cited from earlier work
IL-1β = test: transient MCAO in rats: IL-1β ELISA of brain at study termination; assay type: in vivo, Sprague Dawley rats; conditions: study termination (Day 44); right minus left hemisphere; trend to lower concentrations in treated groups
Text: The brains of all animals were harvested on Day 44. Rats were sacrificed by CO2 inhalation. Brains were harvested from all animals in each group, divided to left and right hemisphere, weighed, and snap frozen.
Brains were harvested at study termination. Each brain was dissected into two hemispheres and each hemisphere was weighed and enclosed into tubes marked Left or Right. Each tube was immediately frozen in liquid nitrogen and stored at (-80)°C. The tissues were defrosted and homogenized in 1 ml / 200 mg tissue of 20mM Tris-HCL pH 7.4 containing a protease inhibitor cocktail (50 µl/ml). Samples were centrifuged at 10,000 g for 15 min at 4°. Clear supernatants were aliquoted (150 µl/aliquot) and stored at (-80)°C until EILSA assays were performed. ELISA assay was executed according to kit instructions. Standards and samples were tested in duplicates.
Following study termination, animals were also tested for IL-1β brain levels using the ELISA system (see Figure 8 for standard curves). The variability of the results was too large to allow definitive conclusions. All the results below the Lower Limit of Quantification (LLOQ) were assigned the LLOQ value of 5pg/ml. Then, results for the uninjured left side were subtracted from the results of the right side. The distribution for individual rats is given in the figure below (n=18 in each of the study groups) (Figure 9).

rat model of stroke [8] = test: transient MCAO in rats: stepping test; assay type: in vivo, Sprague Dawley rats; conditions: Week 4 up to Week 6; 1.5 and 4.5 mg/kg PO twice a day
Protocol: as §1, §2
Stepping Test. […] The animal was held with its hind limbs fixed in one hand and the forelimb, not to be monitored, in the other, while the unrestrained fore-paw touches the table. The number of adjusting steps were counted while the animal was moved sideways along the table surface (85 cm during approximately five seconds), in the forehand & backhand direction for both forelimbs. […]

SMILES	effect on recovery from neurologic deficit (animal models of stroke)	forelimb placement test, sensory motor improvement versus vehicle treated control group (rat model of stroke [1])	body weight, differences between groups [2]	neuroscore, difference between the two doses (rat model of stroke [3]; 1.5 mg/kg versus 4.5 mg/kg PO twice a day (Figure 2))	neuroscore delta (change from Day 2 to actual Week) versus vehicle treated control group (rat model of stroke [3]; Week 4 or Week 6, 1.5 and 4.5 mg/kg PO twice a day, Day 3 to Day 42)	absolute neuroscore versus vehicle treated control group (rat model of stroke [3]; Weeks 4 and 6, 1.5 and 4.5 mg/kg PO twice a day, Day 3 to Day 42, start 48 hours after reperfusion)	whole blood IC50 (cytokine production) [µg/mL]	rats that died after treatment initiation ([4]; 1.5 mg/kg group (2M), within two weeks of treatment initiation)	general clinical signs, differences between groups ([4]; 1.5 and 4.5 mg/kg PO twice a day versus vehicle)	body swing test, outcome (rat model of stroke [5])	IC50 for inhibition of cytokine signaling (cytokine signaling)	drug concentrations in the brain compared with the blood [6]	mean blood concentration [7]	IL-1β levels in the brain, differences between groups (IL-1β)	stepping test, sensory motor deficit (number of steps, left forelimb) versus vehicle treated control group (rat model of stroke [8])
C[S+]([O-])c1ccc(-c2nc(-c3ccc(F)cc3)c(-c3ccncc3)[nH]2)cc1 (stereo not drawn) [SB203850]	no significant effect	–	–	–	–	–	–	–	–	–	–	–	–	–	–
O=c1ncn2nc(Sc3ccc(F)cc3F)ccc2c1-c1c(Cl)cccc1Cl [VX-745]	–	Statistically significant differences	No statistically significant differences	statistically significant difference	statistically significant difference	statistically significant difference	0.065 to 0.08	one	no observed differences	near normalization	half that for cytokine production	approximately two-fold	approximately 75 ng/mL	No statistically significant differences	Statistically significant differences
